Reference: the NIST ThermoML archive (doi:10.1016/j.jct.2016.06.012)
± gives the expanded uncertainty stated by the source.

Test: xn = mol fraction of the nth substance listed
Conditions: 100 kPa, Liquid; for viscosity: Capillary tube (Ostwald / Ubbelohde) method; for mass density: Vibrating tube method

CCCCn1cc[n+](C)c1C.O=S(=O)([N-]S(=O)(=O)C(F)(F)F)C(F)(F)F + O=C1CCCO1
Conditions	mass density [kg/m3]	viscosity [mPa·s]
293.15 K, x1 = 0.0532	1183 ± 9.6	2.62 ± 0.06
293.15 K, x1 = 0.1004	1219.51 ± 9.8	3.65 ± 0.09
293.15 K, x1 = 0.1504	1250.59 ± 10	4.95 ± 0.11
293.15 K, x1 = 0.1999	1275.61 ± 10	6.54 ± 0.15
293.15 K, x1 = 0.2988	1314.04 ± 11	10.79 ± 0.24
293.15 K, x1 = 0.4006	1342.77 ± 11	17.78 ± 0.39
293.15 K, x1 = 0.5005	1364.2 ± 11	26.66 ± 0.59
293.15 K, x1 = 0.5999	1381 ± 11	40.38 ± 0.88
293.15 K, x1 = 0.7	1394.71 ± 11	56.57 ± 1.2
293.15 K, x1 = 0.8013	1406.18 ± 11	79.17 ± 1.8
293.15 K, x1 = 0.8986	1415.43 ± 11	102.22 ± 2.4
293.15 K, x1 = 1	1423.72 ± 11	133.59 ± 3.4
298.15 K, x1 = 0.0532	1178.1 ± 9.5	2.43 ± 0.06
298.15 K, x1 = 0.1004	1214.61 ± 9.8	3.29 ± 0.08
298.15 K, x1 = 0.1504	1245.77 ± 10	4.48 ± 0.1
298.15 K, x1 = 0.1999	1270.81 ± 10	5.77 ± 0.13
298.15 K, x1 = 0.2988	1309.26 ± 10	9.32 ± 0.21
298.15 K, x1 = 0.4006	1338.05 ± 11	14.92 ± 0.33
298.15 K, x1 = 0.5005	1359.5 ± 11	22.02 ± 0.48
298.15 K, x1 = 0.5999	1376.34 ± 11	32.56 ± 0.7
298.15 K, x1 = 0.7	1390.08 ± 11	44.79 ± 0.96
298.15 K, x1 = 0.8013	1401.56 ± 11	60.93 ± 1.3
298.15 K, x1 = 0.8986	1410.81 ± 11	78.62 ± 1.8
298.15 K, x1 = 1	1419.13 ± 11	101.34 ± 2.4
303.15 K, x1 = 0.0532	1173.22 ± 9.5	2.23 ± 0.05
303.15 K, x1 = 0.1004	1209.75 ± 9.7	2.98 ± 0.07
303.15 K, x1 = 0.1504	1240.94 ± 10	4.01 ± 0.09
303.15 K, x1 = 0.1999	1266 ± 10	5.11 ± 0.12
303.15 K, x1 = 0.2988	1304.49 ± 10	8.06 ± 0.18
303.15 K, x1 = 0.4006	1333.32 ± 11	12.72 ± 0.28
303.15 K, x1 = 0.5005	1354.8 ± 11	18.27 ± 0.4
303.15 K, x1 = 0.5999	1371.67 ± 11	26.34 ± 0.57
303.15 K, x1 = 0.7	1385.42 ± 11	35.8 ± 0.77
303.15 K, x1 = 0.8013	1396.93 ± 11	48.32 ± 1
303.15 K, x1 = 0.8986	1406.19 ± 11	61.12 ± 1.3
303.15 K, x1 = 1	1414.52 ± 11	77.86 ± 1.7
308.15 K, x1 = 0.0532	1168.35 ± 9.4	2.05 ± 0.05
308.15 K, x1 = 0.1004	1204.91 ± 9.7	2.72 ± 0.06
308.15 K, x1 = 0.1504	1236.11 ± 9.9	3.65 ± 0.08
308.15 K, x1 = 0.1999	1261.18 ± 10	4.57 ± 0.1
308.15 K, x1 = 0.2988	1299.72 ± 10	7.1 ± 0.16
308.15 K, x1 = 0.4006	1328.58 ± 11	10.83 ± 0.24
308.15 K, x1 = 0.5005	1350.1 ± 11	15.54 ± 0.34
308.15 K, x1 = 0.5999	1366.99 ± 11	21.9 ± 0.47
308.15 K, x1 = 0.7	1380.78 ± 11	29.22 ± 0.63
308.15 K, x1 = 0.8013	1392.3 ± 11	39.19 ± 0.84
308.15 K, x1 = 0.8986	1401.58 ± 11	48.88 ± 1
308.15 K, x1 = 1	1409.91 ± 11	61.73 ± 1.3
313.15 K, x1 = 0.0532	1163.43 ± 9.4	1.9 ± 0.04
313.15 K, x1 = 0.1004	1200.07 ± 9.7	2.49 ± 0.06
313.15 K, x1 = 0.1504	1231.24 ± 9.9	3.28 ± 0.07
313.15 K, x1 = 0.1999	1256.38 ± 10	4.11 ± 0.09
313.15 K, x1 = 0.2988	1294.96 ± 10	6.29 ± 0.14
313.15 K, x1 = 0.4006	1323.85 ± 11	9.4 ± 0.2
313.15 K, x1 = 0.5005	1345.39 ± 11	13.32 ± 0.29
313.15 K, x1 = 0.5999	1362.33 ± 11	18.32 ± 0.39
313.15 K, x1 = 0.7	1376.14 ± 11	24.44 ± 0.52
313.15 K, x1 = 0.8013	1387.67 ± 11	32.14 ± 0.68
313.15 K, x1 = 0.8986	1396.98 ± 11	39.87 ± 0.85
313.15 K, x1 = 1	1405.31 ± 11	49.77 ± 1
318.15 K, x1 = 0.0532	1158.58 ± 9.4	1.74 ± 0.04
318.15 K, x1 = 0.1004	1195.18 ± 9.6	2.3 ± 0.05
318.15 K, x1 = 0.1504	1226.41 ± 9.9	3.06 ± 0.07
318.15 K, x1 = 0.1999	1251.54 ± 10	3.74 ± 0.08
318.15 K, x1 = 0.2988	1290.17 ± 10	5.63 ± 0.12
318.15 K, x1 = 0.4006	1319.11 ± 11	8.18 ± 0.18
318.15 K, x1 = 0.5005	1340.7 ± 11	11.52 ± 0.25
318.15 K, x1 = 0.5999	1357.64 ± 11	15.42 ± 0.33
318.15 K, x1 = 0.7	1371.48 ± 11	20.51 ± 0.44
318.15 K, x1 = 0.8013	1383.04 ± 11	26.78 ± 0.57
318.15 K, x1 = 0.8986	1392.36 ± 11	32.9 ± 0.7
318.15 K, x1 = 1	1400.7 ± 11	40.7 ± 0.85
323.15 K, x1 = 0.0532	1153.71 ± 9.3	1.63 ± 0.04
323.15 K, x1 = 0.1004	1190.32 ± 9.6	2.12 ± 0.05
323.15 K, x1 = 0.1504	1221.58 ± 9.8	2.72 ± 0.06
323.15 K, x1 = 0.1999	1246.73 ± 10	3.39 ± 0.08
323.15 K, x1 = 0.2988	1285.42 ± 10	5.03 ± 0.11
323.15 K, x1 = 0.4006	1314.4 ± 11	7.22 ± 0.16
323.15 K, x1 = 0.5005	1336.03 ± 11	10.06 ± 0.22
323.15 K, x1 = 0.5999	1352.99 ± 11	13.17 ± 0.28
323.15 K, x1 = 0.7	1366.86 ± 11	17.44 ± 0.37
323.15 K, x1 = 0.8013	1378.44 ± 11	22.39 ± 0.48
323.15 K, x1 = 0.8986	1387.78 ± 11	27.46 ± 0.58
323.15 K, x1 = 1	1396.13 ± 11	33.69 ± 0.71
